The values that follow come from patent US20170367588A1, “METHODS USING FACIAL TEMPERATURE TO EVALUATE POST-INGESTIVE IMPACT OF FOOD INGREDIENTS ON FAT OXIDATION” (NESTEC S.A., priority 2014, published 2017).

Entries after “also recorded” stand apart in the source; their conditions may differ.

For experiment [1] the following is noted: literature (Ludy et al. 2011); cited from earlier work.
Experiment [2] can be described thus: clinical trial, facial thermography with infrared camera. The note with it: for nose temperature after intake: Zone-2 (nose), over the 15 minutes post-ingestion, FIG. 4A; for cheek temperature after intake: Zone-12 (cheeks), immediately after intake, FIG. 4B. It is filed as in vivo, human. The arrangement: AUC Difference of the temperature vs placebo: unit not given beside the values. On the procedure:
Participants. Participants were healthy men with 19<BMI<25 and 60 kg minimum body weight. The age was in the 20-50 range. Participants had to like spicy food but are moderate spicy food eaters. Screening of candidates was done through a questionnaire on spicy food habits. The clinical trial we approved by a competent ethics committee (Commission cantonale (VD) d'Etique pour recherché sur l'Etre Humain) and participants gave their written informed consent. This trial was conducted according to the principles and rules laid down in the Declaration of Helsinki and its subsequent amendments.
The presented study was a double-blinded, balanced, randomized, cross-over, placebo-controlled clinical trial. For each measure, the subjects had tested after an over-night fast. They had been requested to use their car or public transportation to come to the investigation site in order to keep morning physical activity level as low as possible. Moreover, consumption of caffeine was not permitted after the lunch meal (12 p.m.) before each session, and participants had been asked to refrain their spice consumption for two days prior each session. Each sample was evaluated in two different sessions A and B, with the same design but different recordings (FIG. 1A).
Each session started at 8:00 a.m. with a 30 minutes rest period and measurement preparation. During all the testing sessions, subjects were seated comfortably. Room temperature was in the 20 to 22° C. range. Subjects were instructed to remain quiet and still, but they were allowed to watch TV. Parameters were recorded 30 minutes before and 90 minutes after ingestion of each sample (FIG. 1A).
Treatment. All active TRP agonists were in 200 ml liquid tomato juice (Granini) at room temperature and served with a slice of bread. Placebo was 200 ml Commercial tomato juice. Active ingredients per 200 ml were 1 mg of Capsaicin (Spectrum chemicals), 0.2 ml of Givaudan cooling flavor (QB-113-979-5) or 70 mg of Cinnamaldehyde (Sigma). All ingredients were in vitro validated in cell lines expressing hTRPV1, hTRPA1 or hTRPM8 according to the calcium imaging method described in Riera et al, 2009 (FIG. 2).
Facial thermography. In this study, infrared thermal imaging of the face has been used as an exploratory, non-invasive recording method of sympathetic nervous system activity. Using a FLIR A325 infrared camera (FLIR Systems, Inc) subjects were continuously recorded at a distance of ˜1 m. They were comfortably installed in a chair with the head maintained fixed on a chin-rest support, to facilitate the further image analysis. Room temperature was in the 20 to 22° C. range. The camera FLIR A325 is equipped with a 25° lens, resolution is 320×240 pixels, and sensitivity is 0.05° C. and accuracy±2° C. The recording was performed by acquiring 1 image/second. Thermographic imaging software, FLIR ResearchIR is used to acquire images.
Facial thermography data were extracted using in-home algorithms developed within the Matlab framework (The Mathworks Inc., Natick, Mass., USA). First, a graphical user interface (GUI) was created to help defining manually a temperature threshold highlighting primarily subject's faces. An alignment of the face was then computed and twelve regions of interest (ROIs) drawn manually using the GUI (FIG. 1B). Face alignment/orientation correction was computed image by image by first creating a binary mask using the manually set temperature threshold. Holes in the binary mask were filled and the region with the greatest continuous area was selected. The selected region centroid was determined using the built-in Matlab region properties tool (regionprops). With the same tool, an ellipse was fitted within the region to obtain the angular orientation of the ellipse's major axis compared to the x-axis. […]

A short description of experiment [3]: clinical trial, indirect calorimetry (energy expenditure and substrate oxidation). The experiment is classed as in vivo, human. The note with it: for energy expenditure compared to placebo / fat oxidation compared to placebo: healthy men, time standardized AUC after ingestion; for energy expenditure compared to placebo: single ingestion in 200 ml tomato juice (1 mg capsaicin, 70 mg cinnamaldehyde, 200 μl CF); for fat oxidation compared to placebo: single ingestion in 200 ml tomato juice; for higher post-prandial fat oxidation compared to placebo, magnitude: over the period of the experiment (90 min), capsaicin 1 mg/200 ml, cinnamaldehyde 70 mg/200 ml. On the procedure: Participants. Participants were healthy men with 19<BMI<25 and 60 kg minimum body weight. The age was in the 20-50 range. Participants had to like spicy food but are moderate spicy food eaters. Screening of candidates was done through a questionnaire on spicy food habits. The clinical trial we approved by a competent ethics committee (Commission cantonale (VD) d'Etique pour recherché sur l'Etre Humain) and participants gave their written informed consent. This trial was conducted according to the principles and rules laid down in the Declaration of Helsinki and its subsequent amendments. The presented study was a double-blinded, balanced, randomized, cross-over, placebo-controlled clinical trial. For each measure, the subjects had tested after an over-night fast. They had been requested to use their car or public transportation to come to the investigation site in order to keep morning physical activity level as low as possible. Moreover, consumption of caffeine was not permitted after the lunch meal (12 p.m.) before each session, and participants had been asked to refrain their spice consumption for two days prior each session. Each sample was evaluated in two different sessions A and B, with the same design but different recordings (FIG. 1A). Each session started at 8:00 a.m. with a 30 minutes rest period and measurement preparation. During all the testing sessions, subjects were seated comfortably. Room temperature was in the 20 to 22° C. range. Subjects were instructed to remain quiet and still, but they were allowed to watch TV. Parameters were recorded 30 minutes before and 90 minutes after ingestion of each sample (FIG. 1A). Treatment. All active TRP agonists were in 200 ml liquid tomato juice ([…]) at room temperature and served with a slice of bread. Placebo was 200 ml Commercial tomato juice. Active ingredients per 200 ml were 1 mg of Capsaicin (Spectrum chemicals), 0.2 ml of Givaudan cooling flavor (QB-113-979-5) or 70 mg of Cinnamaldehyde (Sigma). All ingredients were in vitro validated in cell lines expressing hTRPV1, hTRPA1 or hTRPM8 according to the calcium imaging method described in Riera et al, 2009 (FIG. 2). Energy expenditure was measured using indirect calorimetry. Indirect calorimetry is a measure of respiratory gas exchange (oxygen consumption and carbon dioxide production), which estimates the amount of calories “burned.” This measurement was performed with the MAX-II device (Max II metabolic system, AEI technologies, Naperville, Ill., USA). The equation used by the MAX-II device to evaluate energy expenditure is the simplified Weir formula: REE=(3.941×VO2)+(1.106×VCO2), where: After answering questions from the compliance questionnaire, participants were comfortably installed in semi-recumbent position in a reclining bed, at an angle allowing the participant to ingest the test solution without having to adjust position between metabolic rate measurement periods and treatment ingestion. A canopy was installed over participant's head. Test started 08:30 a.m. following a stabilization period allowing FeCO2 values to reach physiologic range. Substrate oxidation (carbohydrates and fat utilization) and the respiratory quotient (RQ) were calculated using the VO2 and VCO2 values obtained from the MAX-II device during the same timeline than energy expenditure. VO2 and VCO2 values were corrected for protein oxidation. The following equations were used to calculate the amount of fat and carbohydrates oxidized (Dietary Reference Intakes for Energy, Carbohydrate, Fiber, Fat, Fatty Acids, Cholesterol, Protein, and Amino Acids (Macronutrients) (2002/2005) National Academies Press, pp. 633-645): All endpoints have been analyzed using a linear mixed model to take into account the correlation between repeated measures. […]

A further experiment has as its target mouse variant of TRPA1 (Mus musculus, UniProt Q8BLA8). As to conditions: mouse variant of TRPA1, based on the literature; cited from earlier work.
The target of a further experiment is T1, hTRPA1 (Homo sapiens, UniProt O75762).
T1 construct: expressed in transfected cells
Nature of the experiment: in vitro validation in cell lines expressing hTRPA1, calcium imaging. It is filed as cell-based. As to conditions: human TRPA1, in vitro, data not shown. On the procedure:
Treatment. All active TRP agonists were in 200 ml liquid tomato juice ([…]) at room temperature and served with a slice of bread. Placebo was 200 ml Commercial tomato juice. Active ingredients per 200 ml were 1 mg of Capsaicin (Spectrum chemicals), 0.2 ml of Givaudan cooling flavor (QB-113-979-5) or 70 mg of Cinnamaldehyde (Sigma). All ingredients were in vitro validated in cell lines expressing hTRPV1, hTRPA1 or hTRPM8 according to the calcium imaging method described in Riera et al, 2009 (FIG. 2). The objective of this trial was to assess if the stimulation of TRPA1 and TRPM8 pathways could be as efficient at impacting the energy balance as is the simulation of TRPV1 by capsaicin or capsiate. Based on the literature, we selected the most representative TRPA1 agonist: cinnamaldehyde activating specifically the mouse variant of TRPA1 with an EC50 of 60 μM, its specificity on the human form of the receptor has been confirmed in vitro (data not shown). In order to identify an efficient and specific agonist of hTRPM8, different ingredients with cooling properties have been evaluated in vitro. A cooling flavor (CF) provided by Givaudan, activating specifically hTRPM8 with an EC50 of 0.07% (FIG. 2) has been selected. As a positive control, capsaicin was evaluated in parallel to cinnamaldehyde and CF in this trial.

[4] abbreviates: Zone 1, all period post ingestion.
Setting [5] is: Zone 2 (nose), all period post ingestion.
[6] abbreviates: Zone 3, all period post ingestion.
The mark [7] stands for this setting: Zone 4, all period post ingestion.
Setting [8] is: Zone 5, all period post ingestion.
[9] abbreviates: Zone 6, all period post ingestion.
[10] abbreviates: Zone 7, all period post ingestion.
[11] abbreviates: Zone 8, all period post ingestion.
Where [12] appears, read: Zone 9, all period post ingestion.
Where [13] appears, read: Zone 10 (chin), all period post ingestion.
[14] abbreviates: Zone 11, all period post ingestion.
[15] abbreviates: Zone 12 (cheeks), all period post ingestion.

As usually defined, the EC50 is the concentration giving half of the maximal effect.

T1 sequence (O75762 whole entry): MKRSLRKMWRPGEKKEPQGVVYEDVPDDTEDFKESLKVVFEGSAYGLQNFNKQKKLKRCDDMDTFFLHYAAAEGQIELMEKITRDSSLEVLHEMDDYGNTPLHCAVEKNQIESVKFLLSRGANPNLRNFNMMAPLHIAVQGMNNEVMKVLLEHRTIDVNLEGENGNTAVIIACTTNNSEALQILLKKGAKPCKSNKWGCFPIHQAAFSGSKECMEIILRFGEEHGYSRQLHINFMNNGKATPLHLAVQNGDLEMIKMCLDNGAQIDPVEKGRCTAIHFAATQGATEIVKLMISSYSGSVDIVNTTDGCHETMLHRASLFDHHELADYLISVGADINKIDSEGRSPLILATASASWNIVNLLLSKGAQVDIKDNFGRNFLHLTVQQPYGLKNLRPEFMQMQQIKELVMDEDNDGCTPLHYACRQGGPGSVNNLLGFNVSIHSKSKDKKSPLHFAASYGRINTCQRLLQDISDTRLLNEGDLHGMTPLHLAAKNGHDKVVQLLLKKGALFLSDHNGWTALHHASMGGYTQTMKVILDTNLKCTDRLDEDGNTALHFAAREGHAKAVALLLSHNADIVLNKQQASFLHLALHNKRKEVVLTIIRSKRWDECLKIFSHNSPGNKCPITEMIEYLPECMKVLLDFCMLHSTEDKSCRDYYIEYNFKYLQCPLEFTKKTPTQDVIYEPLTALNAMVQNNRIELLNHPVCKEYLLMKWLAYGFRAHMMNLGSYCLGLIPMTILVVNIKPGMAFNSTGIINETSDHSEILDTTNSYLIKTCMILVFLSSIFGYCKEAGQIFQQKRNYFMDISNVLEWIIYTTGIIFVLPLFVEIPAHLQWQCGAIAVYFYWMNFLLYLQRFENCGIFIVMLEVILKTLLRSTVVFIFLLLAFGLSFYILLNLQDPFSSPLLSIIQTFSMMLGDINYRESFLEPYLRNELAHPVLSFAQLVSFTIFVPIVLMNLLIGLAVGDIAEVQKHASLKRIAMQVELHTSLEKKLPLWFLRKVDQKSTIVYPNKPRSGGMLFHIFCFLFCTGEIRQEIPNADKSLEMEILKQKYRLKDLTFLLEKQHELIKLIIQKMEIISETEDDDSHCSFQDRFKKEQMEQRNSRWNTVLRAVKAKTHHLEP

As to `COc1cc(CNC(=O)CCCC/C=C/C(C)C)ccc1O` [capsaicin], in experiment [1], the “efficient doses for increasing energy expenditure and fat oxidation” value is given as no less than 20 mg. The “AUC Difference of the temperature vs placebo” value (from here on “AUC Difference”) was found to be 18.584 in experiment [2] (setting [4]); 54.439 in experiment [2] (setting [5]); 16.959 in experiment [2] (setting [6]); 14.893 in experiment [2] (setting [7]); 8.126 in experiment [2] (setting [8]); 13.186 in experiment [2] (setting [9]). For the same compound, the “AUC Difference” value in experiment [2] (setting [10]) was 9.255; in experiment [2] (setting [11]), 12.469; in experiment [2] (setting [12]), 26.056; in experiment [2] (setting [13]), 25.26; in experiment [2] (setting [14]) it was 3.299; in experiment [2] (setting [15]), 22.575. Moreover, the “nose temperature after intake” value in experiment [2] is listed as “significant increase; also recorded: increase nose temperature”. Further, the “energy expenditure compared to placebo” value in experiment [3] is recorded as “no significant differences”. Besides, in experiment [3], the “fat oxidation compared to placebo” value was “higher level of fat oxidation”. For the same compound, the “higher post-prandial fat oxidation compared to placebo, magnitude” value in experiment [3] was “about 556.2 mg”.
With `O=CC=Cc1ccccc1` [cinnamaldehyde], the “AUC Difference” value in experiment [2] (setting [4]) is given as 22.396; in experiment [2] (setting [5]) it was 42.064; in experiment [2] (setting [6]), 30.816; in experiment [2] (setting [7]) it was 22.118; in experiment [2] (setting [8]) it was 14.065; in experiment [2] (setting [9]), 21.144. Moreover, the “AUC Difference” value in experiment [2] (setting [10]) turned out to be 18.856; in experiment [2] (setting [11]), 18.384; in experiment [2] (setting [12]), 18.947; in experiment [2] (setting [13]) it was 34.072; in experiment [2] (setting [14]), 18.237; in experiment [2] (setting [15]), 26.571. Further, the “nose temperature after intake” value in experiment [2] is listed as “significant increase; also recorded: increase nose temperature”. Further, the “chin temperature compared to placebo” value in experiment [2] (Zone-10 (chin), prolonged time after ingestion, adjusted p-value 0.0486) was “increases chin temperature”. Further, the “cheek temperature after intake” value in experiment [2] is “increases unilaterally cheek temperature”; in experiment [2] (listed as Cinnamaldehyde), “increased temperature”. In experiment [3], the “energy expenditure compared to placebo” value is given as “increases energy expenditure”. In addition, the “fat oxidation compared to placebo” value in experiment [3] is “higher level of fat oxidation”. Besides, the “higher post-prandial fat oxidation compared to placebo, magnitude” value in experiment [3] is roughly 512.7 mg. The EC50 at mouse variant of TRPA1 is 60 µM. Moreover, the “specificity on the human form of the receptor” value on hTRPA1 is reported as “confirmed”.
